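Briefly, cells in 96-well plates were exposed to five compound concentrations for 48 h, and endpoints were estimated by linear interpolation. GI50 is the concentration that inhibits growth by half.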 Activity calls are given as the source filed them. No stated cut-off is given here; in the data, active = GI50 up to about 1.1 µM and inactive = higher. Some results are limits rather than exact numbers.

Some test systems named below: Malme-3M; MCF7; SN12C; K562; NCI-H522; NCI-H226; PC-3; MDA-MB-435; SF-295; UACC-257; CCRF-CEM; CAKI-1; RPMI-8226; UO-31; KM12; EKVX; NCI-H460; HT-29; 786-0; SNB-75.
Common to all, as to assay: growth of human tumour cells (NCI), 48 h

For the compound `O=[N+]([O-])C(/C=C(\Cl)[N+](=O)[O-])=C(N1CCCCC1)N1CCCCC1`, the GI50 in the assay with Malme-3M was 9.44 µM (inactive); in the assay with MCF7, 0.631 µM (active); in the assay on SN12C, 45 µM (inactive); with K562, 27 µM (inactive); with NCI-H522, 58.6 µM (inactive); in the assay on NCI-H226, 56.5 µM (inactive). The GI50 with PC-3 was 39.6 µM (inactive); in the assay with MDA-MB-435 it was 16.7 µM (inactive); with SF-295 it was > 100 µM (inactive); with UACC-257, 25.3 µM (inactive); in the assay with CCRF-CEM, 13.2 µM (inactive); in the assay on CAKI-1 it was > 100 µM (inactive). The GI50 was 30.8 µM (inactive) in the assay with RPMI-8226; 21.3 µM (inactive) in the assay with UO-31; > 100 µM (inactive) with KM12; > 100 µM (inactive) in the assay on EKVX; 36.1 µM (inactive) in the assay with NCI-H460; 31.3 µM (inactive) with HT-29. The GI50 with 786-0 is 36.6 µM (inactive).

For the compound `COc1ccc2[nH]c3c(c2c1)CC(=O)N1CCCC(CC3O)C1` (configuration not stated), the GI50 with Malme-3M, in the assay with MCF7, in the assay with SN12C, in the assay with K562, in the assay with NCI-H522 and in the assay with NCI-H226 was > 100 µM (inactive) throughout. Further, the GI50 in the assay on PC-3, in the assay with MDA-MB-435, in the assay with SF-295, with UACC-257, in the assay with CAKI-1 and in the assay on SNB-75 was > 100 µM (inactive) in each case. Also, the GI50 with RPMI-8226, in the assay with UO-31, in the assay on KM12, in the assay on NCI-H460, with HT-29 and in the assay with 786-0 was > 100 µM (inactive) in each case.

For the compound `CC(=O)Oc1ccc2c(c1)O/C(=C\c1ccc(N(C)C)cc1)C2=O`, the GI50 in the assay on MCF7 is > 100 µM (inactive); in the assay on SN12C, 62.7 µM (inactive); in the assay on K562 it was 27.9 µM (inactive); in the assay with NCI-H522, 25.9 µM (inactive); with NCI-H226 it was > 100 µM (inactive); in the assay with PC-3, > 100 µM (inactive). In addition, the GI50 with MDA-MB-435 was 35.3 µM (inactive); in the assay with UACC-257, > 100 µM (inactive); in the assay with CCRF-CEM, 82.4 µM (inactive); with CAKI-1, > 100 µM (inactive); in the assay on SNB-75, 87.9 µM (inactive); in the assay with RPMI-8226, 54.6 µM (inactive). Further, the GI50 is 26.3 µM (inactive) in the assay on UO-31; 90.8 µM (inactive) in the assay with KM12; > 100 µM (inactive) in the assay with EKVX; 70.1 µM (inactive) in the assay with NCI-H460; > 100 µM (inactive) in the assay on HT-29; > 100 µM (inactive) with 786-0.

Turning to `CSc1nc2ccccc2c(=O)n1/N=C1\C(=O)N(CN2CCCCC2)c2ccc(Cl)cc21`, the GI50 in the assay with Malme-3M is > 100 µM (inactive); in the assay with MCF7 it was 18.7 µM (inactive); with SN12C, 28.7 µM (inactive); with K562 it was 5.22 µM (inactive); in the assay with NCI-H522 it was 12.2 µM (inactive); with NCI-H226, 75.9 µM (inactive). The GI50 was 29.4 µM (inactive) in the assay with PC-3; 26.6 µM (inactive) with MDA-MB-435; 37 µM (inactive) in the assay on SF-295; 20.4 µM (inactive) with UACC-257; 20.6 µM (inactive) in the assay with CCRF-CEM; 23.3 µM (inactive) in the assay on CAKI-1. Further, the GI50 with SNB-75 is 19.7 µM (inactive); in the assay with UO-31 it was 45.8 µM (inactive); in the assay on KM12, 25.1 µM (inactive); in the assay on EKVX, 14.1 µM (inactive); in the assay with NCI-H460 it was 22.7 µM (inactive); with HT-29, 36.7 µM (inactive). Besides, the GI50 in the assay on 786-0 was 22.3 µM (inactive).

With `O=C1/C(=N\n2c(S)nnc2-c2ccncc2)c2cc(Cl)ccc2N1CN1CCCCC1`, the GI50 with Malme-3M is > 100 µM (inactive); in the assay with MCF7, 31.2 µM (inactive); in the assay on SN12C, 55.8 µM (inactive); in the assay with K562, 20.5 µM (inactive); in the assay with NCI-H522, 13.7 µM (inactive); with NCI-H226, > 100 µM (inactive). Further, the GI50 is 34.5 µM (inactive) in the assay on PC-3; 32.2 µM (inactive) in the assay with MDA-MB-435; 94 µM (inactive) with SF-295; 23.4 µM (inactive) in the assay with UACC-257; 6.97 µM (inactive) with CCRF-CEM; 33.7 µM (inactive) in the assay with CAKI-1. Further, the GI50 was 34.3 µM (inactive) in the assay on SNB-75; 56.5 µM (inactive) in the assay on UO-31; 38.3 µM (inactive) in the assay with KM12; 4.65 µM (inactive) in the assay with EKVX; 36.8 µM (inactive) in the assay with NCI-H460; 31.2 µM (inactive) with HT-29. In the assay on 786-0, the GI50 was 27.7 µM (inactive).

In the case of `CC(=O)Nc1cc(CN2CCCCC2)c(O)c2ncccc12`, the GI50 was 22.9 µM (inactive) with Malme-3M; 24.7 µM (inactive) in the assay on MCF7; 26 µM (inactive) with SN12C; 21.3 µM (inactive) in the assay on K562; 37.3 µM (inactive) with NCI-H522; 31.7 µM (inactive) with NCI-H226. Moreover, the GI50 was 21.6 µM (inactive) in the assay with PC-3; 31.4 µM (inactive) with MDA-MB-435; 25.4 µM (inactive) with SF-295; 24.7 µM (inactive) in the assay on UACC-257; 41.5 µM (inactive) in the assay on CCRF-CEM; 16.6 µM (inactive) in the assay on CAKI-1. Also, the GI50 in the assay on RPMI-8226 is 12.1 µM (inactive); with UO-31, 7.35 µM (inactive); with KM12 it was 23.9 µM (inactive); in the assay with EKVX, 30.4 µM (inactive); in the assay with NCI-H460, 11.7 µM (inactive); with HT-29 it was 44.5 µM (inactive). Also, the GI50 with 786-0 is 8.04 µM (inactive).

In the case of `O=[N+]([O-])C(C(Cl)=C(Cl)Cl)=C(N(Cc1ccccc1)Cc1ccccc1)N(Cc1ccccc1)Cc1ccccc1`, the GI50 with Malme-3M is 34 µM (inactive); with MCF7, > 100 µM (inactive); in the assay with SN12C, 29.3 µM (inactive); in the assay with K562, 33.7 µM (inactive); in the assay on NCI-H522, > 100 µM (inactive); with NCI-H226, 36.6 µM (inactive). Further, the GI50 in the assay on PC-3 was 53.7 µM (inactive); in the assay on MDA-MB-435, 28.2 µM (inactive); in the assay with SF-295, 27.9 µM (inactive); with UACC-257, > 100 µM (inactive); with CCRF-CEM, 22.2 µM (inactive); with CAKI-1, > 100 µM (inactive). Also, the GI50 in the assay with SNB-75 was > 100 µM (inactive); with UO-31, 45.8 µM (inactive); with KM12, > 100 µM (inactive); with EKVX, 66.7 µM (inactive); in the assay with NCI-H460 it was 56.9 µM (inactive); with HT-29 it was 33 µM (inactive). For the same compound, in the assay on 786-0, the GI50 was 48.8 µM (inactive).

Turning to `CC(=O)OCC1OC(N2C(S)=C(C#N)C(c3ccco3)C(C(C)=O)=C2c2ccccc2)C(OC(C)=O)C(OC(C)=O)C1OC(C)=O` (configuration not stated), the GI50 is 52.5 µM (inactive) in the assay with Malme-3M; > 100 µM (inactive) in the assay with MCF7; 29.4 µM (inactive) in the assay on SN12C; > 100 µM (inactive) in the assay on K562; 32.1 µM (inactive) in the assay on NCI-H522; > 100 µM (inactive) in the assay with NCI-H226. The GI50 in the assay on PC-3 is 24.9 µM (inactive); in the assay with MDA-MB-435 it was > 100 µM (inactive); in the assay with SF-295, 23.4 µM (inactive); with UACC-257 it was > 100 µM (inactive); with CCRF-CEM, 28.3 µM (inactive); in the assay on CAKI-1, 40.9 µM (inactive). Further, the GI50 was 8.49 µM (inactive) in the assay on SNB-75; 95.9 µM (inactive) with RPMI-8226; 29.3 µM (inactive) in the assay with UO-31; > 100 µM (inactive) in the assay on KM12; > 100 µM (inactive) in the assay with NCI-H460; > 100 µM (inactive) in the assay on HT-29. For the same compound, the GI50 in the assay on 786-0 is 29.3 µM (inactive).

For the compound `C#CCCCOc1ncccn1`, the GI50 in the assay on Malme-3M, in the assay on MCF7, with SN12C, with K562, with NCI-H522 and with NCI-H226 was > 100 µM (inactive) in each case. Moreover, the GI50 was > 100 µM (inactive) with PC-3; > 100 µM (inactive) with MDA-MB-435; > 100 µM (inactive) in the assay on SF-295; > 100 µM (inactive) with UACC-257; > 10 µM (inactive) in the assay on CCRF-CEM; > 100 µM (inactive) in the assay on CAKI-1. The GI50 with RPMI-8226, in the assay on UO-31, in the assay on KM12, in the assay on EKVX, with HT-29 and in the assay with 786-0 was > 100 µM (inactive) throughout.

Turning to `O=C(O)c1cccc2cccc(-c3cccc4cccc(C(=O)O)c34)c12`, the GI50 in the assay on Malme-3M, in the assay on MCF7, with SN12C, in the assay with K562, in the assay on NCI-H522 and in the assay with NCI-H226 was > 100 µM (inactive) throughout. Further, the GI50 in the assay on PC-3, in the assay on MDA-MB-435, in the assay with SF-295, in the assay on UACC-257, in the assay with CCRF-CEM and with CAKI-1 was > 100 µM (inactive) throughout. For the same compound, the GI50 in the assay on SNB-75, in the assay on UO-31, in the assay with KM12, in the assay with EKVX, in the assay with NCI-H460 and in the assay with HT-29 was > 100 µM (inactive) in each case. Also, in the assay on 786-0, the GI50 is > 100 µM (inactive).
